For this experiment, the target named is T1, HaloPETase1 (Halopseudomonas pachastrellae, UniProt A0A1S8DDV9).
T1 construct: gene BXT89_15940; N-terminal signal peptide removed; N-10xHis-SUMO tag cut with SenP2 (tag kept in agar-plate screen); extra N-terminal Ser and C-terminal Ala from FX cloning; E. coli Shuffle T7
T1 sequence (A0A1S8DDV9 24-289): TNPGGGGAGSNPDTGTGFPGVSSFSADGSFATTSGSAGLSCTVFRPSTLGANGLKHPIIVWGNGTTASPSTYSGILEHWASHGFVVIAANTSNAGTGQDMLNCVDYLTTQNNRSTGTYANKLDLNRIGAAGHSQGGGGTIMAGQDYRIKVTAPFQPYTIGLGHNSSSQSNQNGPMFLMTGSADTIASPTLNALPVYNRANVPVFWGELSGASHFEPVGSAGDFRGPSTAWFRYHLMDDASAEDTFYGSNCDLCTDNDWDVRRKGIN
Kind of experiment: absorbance at […] nm, initial rate (residual activity assay). In kind it is biochemical. To be noted: 1 mM substrate, 20 mM NaPi, pH 7.4, 150 mM NaCl, 1% DMSO; tag removed.

The structures appear in SMILES notation.

Take `CCCC(=O)Oc1ccc([N+](=O)[O-])cc1` [para‐nitrophenyl butyrate]: the “absorbance at 405 nm, initial rate (residual activity assay)” value is given as “the residual activity was measured by a para‐nitrophenyl butyrate (pNPB) assay”.

These data come from paper PMC12442448, “A third type of PETase from the marine Halopseudomonas lineage” (Protein Science : A Publication of the Protein Society, 2025).
